Assay results as given in PMC7083565, “In vitro metabolism, reaction phenotyping, enzyme kinetics, CYP inhibition and induction potential of ataluren” (Pharmacology Research & Perspectives, 2020).

Experiments:
Assay type in all cases: in vitro ADME
[1] = Plasma protein binding (ultrafiltration), mouse; conditions: male, C57/BL10, 50 to 50 000 ng/mL, mean ± SD, n = 3, read-out: percentage protein binding (converted)
Procedure: (§1) [^14C]‐Ataluren, at 50, 500, 5000, and 50 000 ng/mL or 0.175, 1.75, 17.5, and 175 µM, in male mouse, rat, dog, monkey, and human plasma, was incubated (n = 3) at 37°C for approximately 15 minutes, transferred into Centrifree® Micropartition Units (30 000 Da molecular weight cutoff, 1 mL capacity; Amicon Inc), and centrifuged at 37°C and 2000 g for approximately 10 minutes so that the amount of the sample filtered was approximately ≤ 20% of the total volume. After centrifugation, the entire ultrafiltrate was weighed and analyzed for radioactivity using liquid scintillation counting. The percent bound = (1‐Cu/Cm)×100, where Cu is the concentration of radioactivity in the ultrafiltrate and Cm is the concentration of radioactivity in the plasma before centrifugation.

[2] = Plasma protein binding (ultrafiltration), dog; conditions: male, beagle, 50 to 50 000 ng/mL, mean ± SD, n = 3, read-out: percentage protein binding (converted)
Procedure: as §1

CYP2C19 = target: T1, CYP2C19 (Homo sapiens, UniProt P33261); experiment: CYP inhibition in pooled human liver microsomes: CYP2C19; conditions: CYP2C19, HLM, estimated, concentrations up to 400 μmol/L
T1 construct: tissue XenoTech LLC, Celsis-In Vitro Technologies, or Tissue Transformation Technologies; host or cells: pooled human liver microsomes
T1 sequence (P33261 whole entry): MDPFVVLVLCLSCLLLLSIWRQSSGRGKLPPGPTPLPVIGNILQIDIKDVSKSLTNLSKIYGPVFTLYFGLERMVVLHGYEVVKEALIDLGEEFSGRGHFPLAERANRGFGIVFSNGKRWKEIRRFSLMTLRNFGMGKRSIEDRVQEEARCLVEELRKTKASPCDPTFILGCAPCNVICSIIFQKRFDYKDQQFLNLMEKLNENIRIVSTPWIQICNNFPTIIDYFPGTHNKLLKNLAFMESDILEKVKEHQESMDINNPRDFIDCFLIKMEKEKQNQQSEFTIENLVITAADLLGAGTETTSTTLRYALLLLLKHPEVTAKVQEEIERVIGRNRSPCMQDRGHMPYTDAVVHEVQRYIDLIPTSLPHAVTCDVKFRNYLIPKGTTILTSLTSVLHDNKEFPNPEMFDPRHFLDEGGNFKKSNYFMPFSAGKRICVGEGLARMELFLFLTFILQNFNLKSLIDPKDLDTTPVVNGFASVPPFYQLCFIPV
Procedure: The final concentration of each probe substrate was near the experimentally determined Km value for the indicated enzyme. Ataluren or prototypical CYP inhibitors (positive controls) was incubated (n = 3) with probe substrates and HLM in 100 mmol/L phosphate buffer (pH 7.4) in a total volume of approximately 0.25 mL, and the reactions were initiated by the addition of 1 mmol/L NADPH at 37°C. The reactions were carried out using previously established conditions to ensure linearity with respect to protein concentration and incubation time (Table S1). Incubations were stopped with the addition of ice‐cold acetonitrile. Metabolite formation in incubations with test compound and control inhibitors was assessed with LC‐MS/MS methods for each of the reaction products as described in Table S2. […] After 7 minutes incubation at 37°C, the reaction was stopped by the addition of ice‐cold acetonitrile, followed by membrane plate filtration. The filtrates were used for LC‐MS/MS analysis. […] IC50 values were determined by nonlinear regression with GraphPad Prism 5 using the following four‐parameter sigmoidal‐logistic IC50 equation: Fit=background+range-background/[1+I/IC50^slope]
Where, I is the inhibitor concentration, and background was set to 0 and range to 100, as percent of control values are utilized. K i was determined by nonlinear regression with GraphPad Prism 5 using best fit model.

CYP2A6 = experiment: CYP induction in primary human hepatocytes: CYP2A6; conditions: Coumarin 7-hydroxylase, 48 hours, n=3
Procedure: (§2) Human hepatocytes isolated from three Caucasian males were transferred to 48‐well collagen‐coated plates at 0.14 × 10^6 cells/well in planting media for attachment. After attachment, planting media was replaced with sandwich media and the cells were incubated until clusters were established. […] The incubation solutions were aspirated and replaced with freshly prepared incubation solutions containing ataluren for an additional 24 hours. […] The incubation solutions were then aspirated and 150 µL of K‐H buffer containing CYP substrates were added. The hepatocytes were incubated for 30 minutes for CYP2C8 (10 µmol/L amodiaquine), 1 hour for CYP3A4 (125 µmol/L testosterone), and 4 hours for CYPs 1A2 (100 µmol/L phenacetin), 2A6 (100 µmol/L coumarin), 2B6 (150 µmol/L bupropion), 2C9 (50 µmol/L tolbutamide), 2C19 (100 µmol/L S‐mephenytoin), and 2E1 (300 µmol/L chlorzoxazone) activity assays. The reactions were stopped by the addition of 0.15 mL of ice‐cold methanol except that coumarin‐treated cells were incubated with β‐glucuronidase and aryl sulfatase for additional 1 hour to free 7‐hydroxycoumarin before the addition of 0.2 mL of ice‐cold methanol. Metabolite formation in incubations with test compounds and control inhibitors was assessed with validated LC‐MS/MS methods for each of the reaction products as described in Table S2. Enzymatic activity for each CYP was calculated using the absolute amount of metabolite formed (pmol) divided by hepatocytes in the incubation (million cells) and the incubation time (minute). The relative fold induction in enzymatic activity was calculated by comparing the rate of metabolite formation for treatment groups to that of the solvent control group (reported as vehicle control%) or positive control group (reported as positive control%).

CYP2C9 = experiment: CYP induction in primary human hepatocytes: CYP2C9; conditions: male, 48 h
Procedure: as §2

[3] = Free fraction in human liver microsomes (internal data); conditions: between 1 and 200 µmol/L, 0.1 mg/mL protein concentration

**Q.** For O=C(O)c1cccc(-c2noc(-c3ccccc3F)n2)c1 [ataluren, Ataluren], which fraction unbound at 15 min [1] is on record?
**A.** 0.016

**Q.** And the fraction unbound at 15 min [2]?
**A.** 0.025

**Q.** And the IC50 (CYP2C19)?
**A.** > 400 µM

**Q.** What about the “Vehicle control %, Mean” value (CYP2A6; ataluren 4 µM) of the same compound?
**A.** 100%

**Q.** And the “Vehicle control %, Mean” value (CYP2A6; ataluren 40 µM)?
**A.** 111%

**Q.** What about the “Vehicle control %, Mean” value (CYP2A6; ataluren 400 µM) of the same compound?
**A.** 118%

**Q.** And the “Vehicle control %, Mean” value (CYP2C9; 4 µM)?
**A.** 100%

**Q.** And the “Vehicle control %, Mean” value (CYP2C9; 400 µM)?
**A.** 146%

**Q.** And the “induction over vehicle control, CYP2C9 activity” value (CYP2C9; hepatocytes, 400 µmol/L)?
**A.** ~1.5 fold

**Q.** And the “Free fractions of ataluren in human liver microsomes” value [3]?
**A.** close to unity
